Experimental data as given in patent EP4796548A1, “PROTEOLYSIS-TARGETING CHIMERA COMPOUND FOR DEGRADING IRAK4 AND USE THEREOF” (Dovetree Medicines Unus, Inc., priority 2023, dated 2025).

Tests used:
[1] = molecular target: T1, IRAK4 (Homo sapiens, UniProt Q9NWZ3); assay: cell-based; assay type: cell-based; set-up: endogenous in cells; host or cells: THP-1 cells; details: for Dmax: THP-1; for DC50: WB, THP-1 cells, 24 hours incubation
T1 sequence (Q9NWZ3 1-460): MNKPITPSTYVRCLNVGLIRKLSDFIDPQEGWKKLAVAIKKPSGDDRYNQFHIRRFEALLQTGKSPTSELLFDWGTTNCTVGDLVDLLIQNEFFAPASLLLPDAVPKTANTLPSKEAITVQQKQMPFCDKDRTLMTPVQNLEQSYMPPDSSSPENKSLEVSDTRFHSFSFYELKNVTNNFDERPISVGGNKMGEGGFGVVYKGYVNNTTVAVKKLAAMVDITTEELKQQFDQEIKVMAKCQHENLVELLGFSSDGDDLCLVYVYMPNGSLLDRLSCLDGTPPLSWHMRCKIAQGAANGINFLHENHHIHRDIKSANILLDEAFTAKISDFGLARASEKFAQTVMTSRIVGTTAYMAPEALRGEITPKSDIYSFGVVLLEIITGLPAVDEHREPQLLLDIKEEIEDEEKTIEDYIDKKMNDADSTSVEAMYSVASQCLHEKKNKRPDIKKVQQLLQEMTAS
Procedure: The degradation level of IRAK4 in THP-1 cells was detected by Western Blot technique. 1,000,000 THP-1 cells were seeded in a 12-well plate (Corning 3513) with 1 mL per well. A stock solution of the compound in 1000× gradient dilution was prepared, with a maximum concentration of 300 µM, and serially diluted with DMSO in 1:3, for a total of 9 doses. The compound in 1000× gradient dilution was added to the 12-well plate with 1 µL per well. After incubation under a condition of 37°C, 5% CO2 for 24 hours, the cells were collected into a 2 mL centrifuge tube, and centrifuged at 5,000 rpm for 5 minutes. The supernatant was discarded. 100 µL RIPA lysis solution (Beyotime, P0013C) was added. After mixing well, the cells were lysed on ice for 10 min, and centrifuged at 14,000 rpm at 4°C for 10 min. The supernatant was collected. Protein content was determined using BCA (Solarbio, PC0020-10*50T). 75 µL of the supernatant was taken, and 25 µL NuPAGE LDS Sample Buffer (4X) (Thermo B0007) (with 5% β-mercaptoethanol added before use) was added to each tube to prepare samples, followed by heating in a metal bath at 100°C for 5 min. 20 µL was loaded into a 4-12% Bis-Tris gel (Invitrogen, WG1402BOX) to prepare 1x NuPAGE™ MOPS buffer (Invitrogen, NP0001). The electrophoresis apparatus was set to a constant voltage of 120V for 1.5 hours. 1x NuPAGE™ MOPS SDS electrophoresis buffer (20X) (Invitrogen, NP0001) was prepared. The electrophoresis apparatus was set to a constant current of 300 mA for 100 minutes. The protein was transferred to a PVDF membrane (Millipore, IPVH00010). The PVDF membrane was blocked with a blocking solution (Licor, 927-60001) at room temperature for 1 h, IRAK4 antibody (Abcam ab32511) was diluted 1:1,000, GAPDH (Abcam ab8245) was diluted 1:3,000, and then the antibody was incubated overnight at 4°C. The next day, the membrane was washed three times with 1× TBST (Elabscience E-BC-R335), for 5 min each time. Secondary antibodies IR Dye 800 CW Goat anti-rabbit (Licor #926-32211) and IRDye® 680RD Goat anti-Mouse (Licor #926-68070) were diluted 1:10,000, followed by incubation in the dark at room temperature for 1 h. The membrane was washed three times with TBST, for 5 min each time. Using Odyssey imaging system Li-cor Odyssey Clx, signals were detected and data were analyzed. Data were analyzed using GraphPad (Prism 9.3) software with non-linear regression (non-liner inhibitor(Bell-shaped)) and a 4 parameter, with parameters as follows: • Span 1 =Plateau1-Dip • Span2=Plateau2-Dip Section1 = Span1/(1+10^(∧)((LogEC50_1−X)*nH1)) [formula] Section2 = Span2/(1+10^(∧)((X−LogEC50_2)*nH2)) [formula]
(§1) The equation is as follows: Y=Dip+Section1+Section2.

[2] = molecular target: T1, IRAK4; assay: detection of proteolysis by Hibit fluorescence (IRAK4 degradation); assay type: cell-based; set-up: host or cells: HEK293T cells (ATCC); details: for Dmax: HEK-293T; for DC50: Hibit, HEK293T cells transfected with HiBiT-tagged IRAK4 plasmid, 24 hours incubation
Procedure: Using the HiBiT tag technology, the sequence containing the HiBiT tag (Seq. ID. No. 1, 5'-[…]-3', Beijing Tsingke Biotech Co., Ltd.) was ligated to the IRAK4 plasmid (Seq. ID. No. 2, 5'-Eco[…] NOT1-3', Beijing Tsingke Biotech Co., Ltd.). The plasmid was transfected into HEK293T cells (ATCC), and the HiBiT […] was measured to characterize the compound-induced IRAK4 degradation. 300,000 HEK293T cells in 1 mL of DMEM medium (Gbico, 11965-092) were seeded into a 6-well plate (Corning 3516) , followed by being placed overnight in a constant incubator at 37°C, 5% CO2. 3 µL X-tremeGENE™ 9 DNA Transfection Reagent (Roche #06365787001), and 1 µg IRAK4 plasmid were added to 200 µL Opti-MEM (Gibico 31985062), followed by gentle mixing. The 6-well plate that had been incubated overnight was taken out and allowed to stand at room temperature for 15 minutes, followed by dropwise addition to the 6-well plate. After transient transfection for 6 hours, cells were digested with trypsin (Gibco, 25200-056) for one minute, followed by centrifugation at 1000 rpm for 3 minutes. 5000 HEK293T cells in 40 µL DMEM medium were seeded into a 384-well plate (Corning 3765), followed by being placed overnight in a constant incubator at 37°C, 5% CO2. Then, 40 nL of the compound was added to the 384-well plate using an Echo 655 Liquid Handler, with a highest final concentration of 10 µM, and a 1:3 serial dilution to give a total of 10 concentrations, followed by incubation at 37°C, 5% CO2 for 24 hours. The 384-well plate was removed and equilibrated to room temperature. 40 µL Nano-Glo® HiBiT Lytic Detection System (Promega N3030) was added to each well. After incubation at room temperature for 15 minutes, the fluorescence values were recorded using EnVision Xcite Multilabel Reader (PerkinElmer 2105-0020). Data were fitted and analyzed using Prism 9.3 software with non-linear regression (non-liner inhibitor(Bell-shaped)) and a 4 parameter, with parameters as follows: • Span1=Plateau1[…] • Span2=Plateau2-Dip Section1 = Span1/(1+10^(∧)((LogEC50_1−X)*nH1)) [formula] Section2 = Span2/(1+10^(∧)((X−LogEC50_2)*nH2)) [formula]
as §1

SMILES	Dmax [1]	DC50 [1]	Dmax [2]	DC50 [2]	DC50 ([1]; read-out: DC50)
Cn1c(=O)n(C2CCC(=O)NC2=O)c2cccc(N3CCC4(CCN(C[C@H]5CC[C@H](n6nc(C(F)F)c7cc(-c8ccc9cc(C(N)=O)cnn89)ncc76)CC5)CC4)CC3)c21 (some centres unmarked) [Compound 1]	> 70%	< 10 nM	> 80%	< 0.5 nM	–
Cn1c(=O)n(C2CCC(=O)NC2=O)c2cccc(N3CCC(N4CCN(C[C@H]5CC[C@H](n6nc(C(F)F)c7cc(-c8ccc9cc(C(N)=O)cnn89)ncc76)CC5)CC4)CC3)c21 (some centres unmarked) [Compound 2]	> 70%	< 10 nM	> 80%	< 0.5 nM	–
Cn1c(=O)n(C2CCC(=O)NC2=O)c2cccc(N3CCC4(CCN(C[C@H]5CC[C@H](n6nc(C(F)F)c7cc(-c8ccc9cc(C(N)=O)cnn89)ncc76)CC5)CC4)C3)c21 (some centres unmarked) [Compound 3]	–	–	70 to 80%	< 0.5 nM	–
Cn1c(=O)n(C2CCC(=O)NC2=O)c2cccc(N3CCN(C[C@H]4CC[C@H](n5nc(C(F)F)c6cc(-c7ccc8cc(C(N)=O)cnn78)ncc65)CC4)CC3)c21 (some centres unmarked) [Compound 4]	–	–	< 60%	1 to 5 nM	–
Cn1c(=O)n(C2CCC(=O)NC2=O)c2cccc(N3CCN(C4CCN(C[C@H]5CC[C@H](n6nc(C(F)F)c7cc(-c8ccc9cc(C(N)=O)cnn89)ncc76)CC5)CC4)CC3)c21 (some centres unmarked) [Compound 5]	60 to 70%	< 10 nM	> 80%	< 0.5 nM	–
Cn1c(=O)n(C2CCC(=O)NC2=O)c2cccc(N3CCC4(CCN(C[C@H]5CC[C@H](n6nc(C(F)F)c7cc(-c8ccc9cc(C(N)=O)cnn89)ncc76)CC5)C4)CC3)c21 (some centres unmarked) [Compound 6]	> 70%	< 10 nM	> 80%	< 0.5 nM	–
Cn1c(=O)n(C2CCC(=O)NC2=O)c2cccc(N[C@H]3CC[C@H](N(C)C[C@H]4CC[C@H](n5nc(C(F)F)c6cc(-c7ccc8cc(C(N)=O)cnn78)ncc65)CC4)CC3)c21 (some centres unmarked) [Compound 7]	–	–	60 to 70%	< 0.5 nM	–
Cn1c(=O)n(C2CCC(=O)NC2=O)c2cccc(C#CCOC3CCN(C[C@H]4CC[C@H](n5nc(C(F)F)c6cc(-c7ccc8cc(C(N)=O)cnn78)ncc65)CC4)CC3)c21 (some centres unmarked) [Compound 8]	–	–	70 to 80%	< 0.5 nM	–
C[C@H]1CN(c2cccc3c2n(C)c(=O)n3C2CCC(=O)NC2=O)CCN1C[C@H]1CC[C@H](n2nc(C(F)F)c3cc(-c4ccc5cc(C(N)=O)cnn45)ncc32)CC1 (some centres unmarked) [Compound 9]	–	–	–	–	> 30 nM
Cn1nc(C2CCC(=O)NC2=O)c2cccc(-c3cnn(C4CCN(C[C@H]5CC[C@H](n6nc(C(F)F)c7cc(-c8ccc9cc(C(N)=O)cnn89)ncc76)CC5)CC4)c3)c21 (some centres unmarked) [Compound 10]	> 70%	< 10 nM	–	–	–
Cn1c(=O)n(C2CCC(=O)NC2=O)c2cccc(-c3cnn(C4CCN(C[C@H]5CC[C@H](n6nc(C(F)F)c7cc(-c8ccc9cc(C(N)=O)cnn89)ncc76)CC5)CC4)c3)c21 (some centres unmarked) [Compound 11]	< 60%	> 30 nM	–	–	–
C[C@@H]1CN(C2CCN(c3cccc4c3n(C)c(=O)n4C3CCC(=O)NC3=O)CC2)CCN1C[C@H]1CC[C@H](n2nc(C(F)F)c3cc(-c4ccc5cc(C(N)=O)cnn45)ncc32)CC1 (some centres unmarked) [Compound 12]	60 to 70%	> 30 nM	–	–	–
C[C@H]1CN(C2CCN(c3cccc4c3n(C)c(=O)n4C3CCC(=O)NC3=O)CC2)CCN1C[C@H]1CC[C@H](n2nc(C(F)F)c3cc(-c4ccc5cc(C(N)=O)cnn45)ncc32)CC1 (some centres unmarked) [Compound 13]	> 70%	> 30 nM	–	–	–
C[C@@H]1CC2(CCN(c3cccc4c3n(C)c(=O)n4C3CCC(=O)NC3=O)CC2)CN1C[C@H]1CC[C@H](n2nc(C(F)F)c3cc(-c4ccc5cc(C(N)=O)cnn45)ncc32)CC1 (some centres unmarked) [Compound 17]	> 70%	> 30 nM	–	–	–
Cn1nc(C2CCC(=O)NC2=O)c2cccc(N3CCC(N4CCN(C[C@H]5CC[C@H](n6nc(C(F)F)c7cc(-c8ccc9cc(C(N)=O)cnn89)ncc76)CC5)CC4)CC3)c21 (some centres unmarked) [Compound 19]	> 70%	< 10 nM	–	–	–
Cn1nc(C2CCC(=O)NC2=O)c2cccc(N3CCC4(CCN(C[C@H]5CC[C@H](n6nc(C(F)F)c7cc(-c8ccc9cc(C(N)=O)cnn89)ncc76)CC5)C4)CC3)c21 (some centres unmarked) [Compound 20]	< 60%	10 to 30 nM	–	–	–
C[C@H]1CN(C[C@H]2CC[C@H](n3nc(C(F)F)c4cc(-c5ccc6cc(C(N)=O)cnn56)ncc43)CC2)CCN1C1CCN(c2cccc3c2n(C)c(=O)n3C2CCC(=O)NC2=O)CC1 (some centres unmarked) [Compound 22]	< 60%	> 30 nM	–	–	–
